Experimental data published in PubChem BioAssay AID2305 (GlaxoSmithKline (GSK), 2010).
Several values for one entry are separate records, joined by “and”; a condition that tells them apart may be missing. Equal entries are not always repeated.

system: P. falciparum 3D7 growth, pLDH absorbance; assay: blood-stage malaria parasite growth potency – strain 3D7, dose response (AID 2305)

Structure (SMILES)	IC50
Cc1cccc2[nH]c(-c3ccc(-c4cccc(NC(=O)c5cnccc5C(F)(F)F)c4)cc3)nc12	1000 nM
O=C(Nc1ccncc1)c1cc(C(=O)Nc2ccncc2)cc([N+](=O)[O-])c1	610 nM
CC(C)(CNC(=O)[C@H]1CCCN1)c1nc(-c2ccc(Cl)c(O)c2)c(-c2ccncc2)[nH]1	1270 nM
Cc1ccc(Cc2cccc3nc(N)nc(N)c23)cc1	1150 nM
O=c1cc(NCCCNCc2cccc3c2OC(F)(F)O3)[nH]c2ccccc12	950 nM
CCCNC(=O)c1cncc(-c2ccc(CNC3Cc4ccccc4C3)cc2)c1	850 nM
COc1cc(Cc2cnc(N)nc2N)cc(OCCCCC#N)c1OC	1040 nM
CCC(C)OC(=O)C1=C(C)NC2=C(C(=O)CC(c3ccc(OC)c(OC)c3)C2)C1c1ccc(C)o1 (centres undefined)	900 nM
COCCN1CCN(Cc2cccc(-c3ccc(-c4nc5ccccc5[nH]4)cc3)c2)CC1	760 nM
N#Cc1ccc(CN2CCCN(Cc3cccc(NC(=O)c4cc5ccccc5s4)c3)CC2)cc1	910 nM
CN(C)Cc1ccc(-c2ccc3c(Nc4ccc(Oc5ccccc5)cc4)ccnc3c2)o1	790 nM
COc1ccc2nccc(N3CCC(O)(CCNCc4ccc5c(n4)NC(=O)CO5)CC3)c2n1	820 nM
CN(C)CCNCc1ncsc1-c1ccc2c(Nc3ccc(F)cc3Cl)ccnc2c1	1470 nM
O=C(Nc1ccc(Cl)cc1)c1cccc(S(=O)(=O)NC2CCN(CC3CCCCC3)CC2)c1	720 nM
O=c1cc(NCCCNCc2scc(I)c2I)[nH]c2ccccc12	590 nM
Cc1cccc2[nH]c(-c3ccc(-c4ccc(NC(=O)Nc5ccc(Cl)c(Cl)c5)cc4)s3)nc12	180 nM
Cc1cc(NN=Cc2cccc(Cl)c2)c2ccccc2n1	260 nM
CSc1cccc(NC(=O)Nc2ccc(I)c(OCCN(C)C)c2)c1	690 nM
CC(C)c1cc2c(cc1O)C(Cc1ccccc1Cl)N(C)CC2 (centres undefined)	730 nM
COc1ccc(CNC(=O)c2cnc3c(O)cccc3c2Nc2cccc(NC(=O)c3ccc(Cl)c([N+](=O)[O-])c3)c2)cc1	950 nM
CS(=O)(=O)Cc1ccc(Nc2nccc(-c3c(-c4cccc(NC(=O)C5CCCCC5)c4)nn4ncccc34)n2)cc1	200 nM
Cc1ccccc1N1CCN(c2ccc(C(=O)Nc3ccccc3)cc2)CC1	720 nM
Cc1ccc2c(NN=Cc3cccc(F)c3)cc(C)nc2c1	860 nM
CCc1cn2c3c(cc(C(=O)N[C@@H](Cc4ccccc4)[C@H](O)CNCc4cccc(C)c4)cc13)N(C)S(=O)(=O)CC2	250 nM
CC(=O)Nc1ccc(C(=O)Nc2ccc(-c3csc(-c4nc5ccccc5[nH]4)c3)cc2)cn1	590 nM

Structure (SMILES)	IC50
CCCC(=O)Nc1ccc(OCCCCN(Cc2ccccc2C(F)(F)F)c2ccc(C(F)(F)F)c(C#N)c2)cc1	970 nM
Cn1ccc(-c2cccc(Nc3ccnc4cc(-c5nccs5)ccc34)c2)n1	410 nM
CCC(C)CN1C(=O)C(c2ccccc2)(c2ccccc2)N=C1N (centres undefined)	710 nM
CC(C)[C@H](NCC(=O)c1ccccc1)C(=O)O	780 nM
c1cc(C2=N[C@H]3CCCC[C@@H]3N2)ccc1OCCCCCOc1ccc(C2=N[C@@H]3CCCC[C@H]3N2)cc1	230 nM
Cc1nnsc1C(=O)Nc1ccc(-c2cccc(-c3nc4c(C)cccc4[nH]3)c2)cc1	630 nM
O=C(Nc1cc(Cl)ccc1Cl)N[C@H]1CCN(CCCCCNC(=O)[C@@H]2C[C@H]2c2ccc(Cl)c(Cl)c2)C1	770 nM
CCOc1ccc2nc(-c3ccccc3)cc(NN=Cc3ccncc3)c2c1	150 nM
Cc1cc(OCCCN2CCC(NS(=O)(=O)c3ccc(Cl)c(Cl)c3)C2)c2ccccc2n1 (centres undefined)	1050 nM
O=C(Nc1ccc(Oc2ccccc2)cc1)N1CCC(CN2CCC(c3c[nH]c4ccccc34)CC2)CC1	610 nM
O=C(Nc1cccc(C(F)(F)F)c1)Nc1ccc(Cl)c(Cl)c1	740 nM
Cc1c(CNCCCNc2cc(=O)c3ccccc3[nH]2)sc(C(F)=C(F)F)c1Br	840 nM
CC[C@H]1CN2CC[C@@H]1C[C@H]2[C@H](O)c1ccnc2ccc(Cl)cc12	120 nM
Nc1c2c(nc3ccc(C(=O)Nc4ccc(Br)cc4)cc13)CCCC2	150 nM
Cc1[nH]c2ccccc2c1C(=O)C(C)Sc1n[nH]c(-c2ccccc2Br)n1 (centres undefined)	30 nM
CN1CC[C@@H](Oc2cc(CNC(=O)c3ccc(-c4ccc(Cl)cc4)s3)ccc2C(F)(F)F)C1	1030 nM
Nc1nccc2ccc(-c3ccc(Oc4ccccc4)cc3)cc12	280 nM
COc1ccc(C#Cc2ccc(-c3c(C)[nH]c(C)c(Cl)c3=O)cc2)cc1	70 nM
CC(C)N1CCN(CCCNc2c3ccccc3nc3ccccc23)CC1	230 nM
CCCc1ccc(S(=O)(=O)Nc2ccc3c(c2)CCC3)cc1	880 nM
Cc1ccc(Nc2nc(N)c3ccccc3n2)cc1	840 nM
CNCc1cccc(-c2ccc3ccnc(N)c3c2)c1	90 nM
CC(c1cccc(Nc2nccc(-c3c(-c4cccc(NC(=O)c5c(F)cccc5F)c4)nn4ccccc34)n2)c1)S(C)(=O)=O (centres undefined)	60 nM
CN(c1ccccc1)S(=O)(=O)c1cccc(NC(=O)c2ccc(-n3ccnc3)c([N+](=O)[O-])c2)c1	1130 nM
O=S(=O)(Nc1ccc(CCN2CCC(N3CCCCC3)CC2)cc1)c1ccccc1C(F)(F)F	1020 nM

Structure (SMILES)	IC50
CCN(CC)c1ccc(NC(=S)NC2CCN(CCCCCNC(=O)/C=C/c3ccc(Cl)c(Cl)c3)CC2)cc1	880 nM
O=C(O)c1ccc(OCOCOc2ccc(C(=O)O)c(O)c2)cc1O	190 nM
CCC1(C)N=C(N)N=C(N)N1c1ccccc1 (centres undefined)	790 nM
Cc1ccc(-c2nc(N3CCN(C(=O)c4ccco4)CC3)c3ccc(Cl)cc3n2)cc1	1210 nM
Cc1ccc2ccncc2c1N	700 nM
O=C(Nc1ccc2c(c1)CCN2C1CCN(Cc2ccc(O)cc2)C1)c1ccco1 (centres undefined)	900 nM
O=C(Nc1ccsc1)Nc1cccc(-c2ccc(-c3nc4ccc(C(F)(F)F)cc4[nH]3)cc2)c1	350 nM
CCc1cn2c3c(cc(C(=O)N[C@@H](Cc4cccc(Cl)c4)[C@H](O)CNC4CCOCC4)cc13)N(C)S(=O)(=O)CC2	40 nM
COc1ccccc1C(C)NCC(=O)Nc1cc(C(F)(F)F)ccc1Cl (centres undefined)	780 nM
C[C@H](O)[C@@](C)(CO)NCc1ccc2c3c(cccc13)-c1ccccc1-2	820 nM
FC(F)(F)c1cccc(CNC2CCN(CC3CCCCC3)CC2)c1	580 nM
CCOc1cc(CNCCCCCCNCc2cc(OCC)c(OCC)c3ccccc23)c2ccccc2c1OCC	280 nM
Cc1[nH]c(C)c(-c2ccc(-c3ccccc3F)nc2)c(=O)c1Br	400 nM
COc1ccc(Nc2c3ccc(Cl)cc3nc3ccc(OC)cc23)cc1	440 nM
CN(C)CC1CCCN1Cc1ccccc1-c1cnn(C)c(=O)c1Oc1cccc(C#N)c1 (centres undefined)	1340 nM
CC(=O)Nc1ccc(CN(Cc2ccc(C)cc2)Cc2cccc(Oc3ccccc3)c2)cc1	1050 nM
Cc1cccc2[nH]c(-c3cccc(-c4cccc(NC(=O)NCc5ccccc5)c4)c3)nc12	520 nM
Cc1cc(Nc2ccc(C)c(C)c2)n2nc(C)nc2n1	600 nM
COc1ccc(OC)c(Cc2c(C)nc3nc(N)nc(N)c3c2C)c1	860 nM
CC(NC(C)c1cccc(Cl)c1)C(=O)Nc1cc(C(F)(F)F)ccc1N1CCOCC1 (centres undefined)	1090 nM
CC(C)CCNC(=O)[C@@H]1[C@H]2C(=O)N(C3CCCCC3)C(=O)[C@H]2[C@H]2C=C[C@@H]3C(c4ccc(C(C)(C)C)cc4)=NO[C@@H]3N21	790 nM
NC(=O)c1ccc(NCC(=O)Nc2cccc(-c3cccc(-c4nc5ccc(C(F)(F)F)cc5[nH]4)c3)c2)cc1	270 nM
CC(=O)Nc1cccc(Nc2nccc(Nc3ccc(Oc4ccccc4)cc3)n2)c1	750 nM
CC(C)c1ccc(C(NC(=O)C2CCCCC2)c2ccc3cccnc3c2O)cc1 (centres undefined)	600 nM
Cc1cnc(NCC2CCCCC2)nc1NCC(=O)Nc1ccccc1	710 nM

Structure (SMILES)	IC50
CCOc1cc(C)ccc1N(C1CCN(CCCCNC(=O)c2ccc(-c3ccc(C(F)(F)F)cc3)cc2)CC1)S(=O)(=O)c1ccccc1	1020 nM
CC(=O)Nc1nc(C(=O)Nc2cccc(-c3ccc(-c4nc5ccccc5[nH]4)cc3)c2)cs1	420 nM
COc1ccc(CN2CCCN(Cc3cccc(C(=O)Nc4ccc(C(C)(C)C)cc4)c3)CC2)cc1	890 nM
NCc1ccc(CNCc2ccc(-c3ccc(-c4nc5ccc(C(F)(F)F)cc5[nH]4)s3)cc2)cc1	160 nM
FC(F)(F)c1cc(Nc2ncnc3ccc(Br)cc23)ccc1OCc1ccccc1	1080 nM
COc1cc(Cc2cnc(N)nc2N)cc(OCCCC#N)c1OC	1030 nM
CN=C(N)c1ccc(NC(=O)C=Cc2ccc(C(=O)Nc3ccc(C(N)=NC)cc3)cc2)cc1	30 nM
CC(C)C1C(O)=C(c2ccc3ccccc3c2)C(=O)N1Cc1cccc(F)c1 (centres undefined)	810 nM
C=CCOC(=O)N1CCC(CNCc2ccc(-c3ccc(-c4nc5ccccc5[nH]4)s3)cc2)C1 (centres undefined)	230 nM
CC[C@H](C)CNC(=O)c1cccc(-c2ccc(CN3CCC(N4CCCC4)CC3)cc2)n1	790 nM
O=C(Nc1ccc(F)c(F)c1)c1ccc(CN2CCCN(Cc3cccc(O)c3)CC2)cc1	840 nM
O=C(Nc1ccc(-c2nc3ccccc3[nH]2)cc1)c1cccc(S(=O)(=O)N2CCOCC2)c1	900 nM
CC(C)(CN1CCCC1)CN(Cc1ccc(-c2ccc(C(F)(F)F)cc2)cc1)C(=O)Cn1c(CCc2cccc(F)c2F)nc(=O)c2ccccc21	790 nM
Clc1ccccc1CN1CCC(NCc2cccc(-n3ccnc3)c2)CC1	790 nM
COc1ccc(NC(=O)NC2CCN(c3ccnc4cc(Cl)ccc34)CC2)cc1	730 nM
CCCNc1nc(Nc2ccccc2C)nc2ccccc12	890 nM
CC(=O)c1ccc2cc(C(=O)NC3CCC(CCN4CCc5ccc(-c6noc(C)n6)cc5CC4)CC3)[nH]c2c1 (centres undefined)	950 nM
O=C(Nc1cccc(-c2nn3ccccc3c2-c2ccnc(Nc3ccc(Cc4ccncc4)cc3)n2)c1)c1c(F)cccc1F	300 nM
COc1ccc(C(=O)CCC(=O)N(Cc2ccc(-c3ccc(CNCCc4ccc(S(C)(=O)=O)cc4)cn3)cc2)Cc2ccc3c(c2)OCO3)cc1F	940 nM
CC(C)(C)c1cc(/C=C/C(=O)NC2CCC(CN3CCC(c4c[nH]c5ccccc45)CC3)CC2)cc(C(C)(C)C)c1O (centres undefined)	720 nM and 700 nM
Cc1sc2ncnc(Sc3nnc(N)s3)c2c1C	400 nM
O=C(COc1cnc2ccccc2n1)Nc1ccccc1Sc1ccc(Cl)cc1	730 nM
COc1ccccc1C1CCN(C2CCC(NC(=O)c3cc(-c4ccc(Cl)cc4)cs3)CC2)CC1 (centres undefined)	380 nM
Fc1ccc2[nH]c3c(NCCCN4CCOCC4)ncnc3c2c1	710 nM
